Measurements: patent US12103915B2, “TEAD inhibitors and methods of uses thereof” (Insilico Medicine IP Limited, priority 2022, dated 2024)

Legend:
Format in all cases: binding
TEAD3 = TEAD3 (Homo sapiens, UniProt Q99594); experiment: Thermal shift assay TEAD3
Procedure: (§1) Example B: Thermal Shift Assay
(§2) 1) Prepare a fresh dilution of Protein Thermal Shift™ Dye (Applied Biosystems, 1000×) to 8× by […].
(§3) 2) To ensure the same DMSO concentration, the compounds were diluted as follows: Prepare 10 mM stock solution of compounds;
(§4) The final DMSO concentration was 0.1%
(§5) 10 μM: Diluting stock solution to 100 μM by using PBS.
(§6) 1 μM: Diluting stock solution to 1 mM by using DMSO, then dilute to 10 μM by using PBS.
TEAD3: the stock concentration was 2.4 mg/ml; the final concentration was 0.1 mg/ml.
(§7) 4) Place the appropriate reaction plate or tubes on ice, then prepare the protein melt reactions:
(§8) 5) Pipet each reaction up and down 10 times to mix well.
(§9) 6) Seal the plate with MicroAmp™ Optical Adhesive Film, spin it at 1000 rpm for 1 minute.
(§10) 7) Set up and run on the qPCR instrument.
(§11) Using thermal Shift™ Software v1.3 to analysis.

TEAD1 = TEAD1 (Homo sapiens, UniProt P28347); experiment: Thermal shift assay TEAD1
Procedure: as §1, §2, §3, §4, §5, §6
(§12) TEAD1: the stock concentration was 2.9 mg/ml; the final concentration was 0.2 mg/ml. TEAD2: the stock concentration was 1.8 mg/ml; the final concentration was 0.08 mg/ml.
as §7, §8, §9, §10, §11

TEAD4 = TEAD4 (Homo sapiens, UniProt Q15561); experiment: Thermal shift assay TEAD4
Procedure: as §1, §2, §3, §4, §5, §6
TEAD4: the stock concentration was 2.3 mg/ml; the final concentration was 0.1 mg/ml.
as §7, §8, §9, §10, §11

TEAD2 = TEAD2 (Homo sapiens, UniProt Q15562); experiment: Thermal shift assay TEAD2
Procedure: as §1, §2, §3, §4, §5, §6, §12, §7, §8, §9, §10, §11

Sequence of TEAD3 (Q99594 whole entry, species assumed): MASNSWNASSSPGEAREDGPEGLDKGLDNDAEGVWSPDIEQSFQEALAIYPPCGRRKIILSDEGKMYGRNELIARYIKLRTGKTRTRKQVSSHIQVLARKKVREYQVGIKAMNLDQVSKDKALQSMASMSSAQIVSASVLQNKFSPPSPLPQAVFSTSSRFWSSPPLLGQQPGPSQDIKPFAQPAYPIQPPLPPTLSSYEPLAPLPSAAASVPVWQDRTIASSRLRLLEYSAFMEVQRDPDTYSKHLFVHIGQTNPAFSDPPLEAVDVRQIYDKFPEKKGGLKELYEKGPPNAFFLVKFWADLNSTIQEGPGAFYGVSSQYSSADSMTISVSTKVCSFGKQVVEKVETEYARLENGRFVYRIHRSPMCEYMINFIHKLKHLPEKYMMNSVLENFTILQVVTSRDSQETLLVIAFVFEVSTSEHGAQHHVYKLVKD
Sequence of TEAD1 (P28347 whole entry, species assumed): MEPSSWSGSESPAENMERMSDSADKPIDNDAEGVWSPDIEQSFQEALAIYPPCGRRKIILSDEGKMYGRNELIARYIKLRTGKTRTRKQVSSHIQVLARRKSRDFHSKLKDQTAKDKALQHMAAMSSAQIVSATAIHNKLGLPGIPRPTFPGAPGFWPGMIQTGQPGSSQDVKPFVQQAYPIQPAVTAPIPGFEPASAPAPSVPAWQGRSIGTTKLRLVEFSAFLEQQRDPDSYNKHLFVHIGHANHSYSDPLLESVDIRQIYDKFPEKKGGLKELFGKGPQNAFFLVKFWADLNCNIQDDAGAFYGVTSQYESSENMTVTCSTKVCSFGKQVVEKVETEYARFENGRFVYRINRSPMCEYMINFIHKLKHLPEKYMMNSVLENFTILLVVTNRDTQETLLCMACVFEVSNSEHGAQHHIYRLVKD
Sequence of TEAD2 (Q15562 whole entry, species assumed): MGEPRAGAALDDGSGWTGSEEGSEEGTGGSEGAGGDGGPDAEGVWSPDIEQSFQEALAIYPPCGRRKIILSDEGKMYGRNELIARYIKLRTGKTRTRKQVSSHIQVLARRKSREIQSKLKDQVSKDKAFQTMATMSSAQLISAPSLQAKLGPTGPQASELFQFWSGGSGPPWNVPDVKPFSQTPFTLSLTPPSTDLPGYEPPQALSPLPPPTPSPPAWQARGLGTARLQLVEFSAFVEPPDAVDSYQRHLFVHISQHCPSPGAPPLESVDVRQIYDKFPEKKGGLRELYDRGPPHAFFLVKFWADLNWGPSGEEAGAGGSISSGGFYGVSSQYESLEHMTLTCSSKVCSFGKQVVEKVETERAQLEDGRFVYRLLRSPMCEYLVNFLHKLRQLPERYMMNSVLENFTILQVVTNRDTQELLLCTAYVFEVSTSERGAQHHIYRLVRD
Sequence of TEAD4 (Q15561 whole entry, species assumed): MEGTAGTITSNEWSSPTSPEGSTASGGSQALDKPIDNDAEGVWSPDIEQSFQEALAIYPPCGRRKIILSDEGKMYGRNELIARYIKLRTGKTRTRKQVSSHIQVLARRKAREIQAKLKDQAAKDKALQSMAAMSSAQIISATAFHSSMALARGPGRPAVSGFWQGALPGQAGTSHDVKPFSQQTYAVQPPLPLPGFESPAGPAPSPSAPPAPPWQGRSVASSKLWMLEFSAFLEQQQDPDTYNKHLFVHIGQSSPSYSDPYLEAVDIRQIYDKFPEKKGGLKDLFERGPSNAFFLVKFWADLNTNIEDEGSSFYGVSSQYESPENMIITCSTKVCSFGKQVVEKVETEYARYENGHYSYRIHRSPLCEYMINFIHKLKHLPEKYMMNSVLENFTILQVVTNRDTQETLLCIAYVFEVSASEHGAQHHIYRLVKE

Compound | TEAD3 ΔTm (TEAD3) [°C] | TEAD1 ΔTm (TEAD1) [°C] | TEAD4 ΔTm (TEAD4) [°C] | TEAD2 ΔTm (TEAD2) [°C]
Cn1cc2cc(Oc3ccc(C(F)(F)F)cc3)cc(C3C[C@H]3C(=O)N3CCOC4(COC4)C3)c2n1 (single isomer, unassigned) [Example 114] | 1.5 | 4.6 | 7.1 | 7.1
Cn1cc2nc(Oc3ccc(C(F)(F)F)cc3)cc([C@@H]3C[C@H]3C(=O)N3C[C@@H]4C[C@H]3CO4)c2n1 (single isomer, unassigned) [Example 120] | 1.2 | 4.1 | 4.5 | 6.5
Cn1cc2nc(Oc3ccc(C(F)(F)F)cc3)cc([C@@H]3C[C@H]3C(=O)N3C[C@H]4C[C@@H]3CO4)c2n1 (single isomer, unassigned) [Example 119] | 1.6 | 4.2 | 4.7 | 6.1
Cn1cc2cc(Oc3ccc(C(F)(F)F)cc3)cc(C3C[C@H]3C(=O)N3CCP(C)(=O)CC3)c2n1 (single isomer, unassigned) [Example 111] | 0.7 | 3.0 | 3.2 | 3.7
Cn1cc2nc(Oc3ccc(C(F)(F)F)cc3)cc([C@@H]3C[C@H]3C(=O)N3C4COCC3C4)c2n1 (single isomer, unassigned) [Example 118] | 1.6 | 4.6 | 6.1 | 6.2
CNS(=O)(=O)[C@@H]1CC1c1cc(-c2ccc(C(F)(F)F)cc2)cc2cn(C)nc12 (mixture of isomers) [Example 50] | 0.7 | 4.2 | 5.7 | 2.5
CNS(=O)(=O)CCc1cc(N(C)c2ccc(C(F)(F)F)cc2)cc2cn(C)nc12 [Example 49] | 0.1 | 3.2 | 5.1 | 2.6
[2H]C([2H])([2H])n1cc2cc(Oc3ccc(C(F)(F)F)cc3)cc([C@H]3C[C@@H]3C(=O)NC)c2n1 (single isomer, unassigned) [Example 76b] | 10.9 | 11.5 | 12.6 | 15.4
Cn1cc2cc(Oc3ccc(C(F)(F)F)cc3)cc([C@@H]3C[C@H]3C(=O)N3CCC34CC(O)C4)c2n1 (single isomer, unassigned) [Example 136] | 1.7 | 7.1 | 10.3 | 12.4
Cn1cc2cc(Oc3ccc(C(F)(F)F)cc3)cc(C3C[C@H]3C(=O)N3CCS(=O)(=O)CC3)c2n1 (single isomer, unassigned) [Example 110] | 1.0 | 4.1 | 4.1 | 5.2
Cn1cc2cc(Oc3cc(F)ccc3C(F)(F)F)cc([C@@H]3C[C@H]3C(=O)N3CC(O)C3)c2n1 (single isomer, unassigned) [Example 133] | 0.3 | 1.1 | 4.9 | 8.5
CN1CCC2(CN(C(=O)[C@@H]3CC3c3cc(Oc4ccc(C(F)(F)F)cc4)cc4cn(C)nc34)C2)C1=O (single isomer, unassigned) [Example 115] | 1.3 | 4.2 | 3.5 | 3.5
Cn1cc2cc(Oc3ccc(C(F)(F)F)cn3)cc([C@@H]3C[C@H]3C(=O)N3CC(O)C3)c2n1 (single isomer, unassigned) [Example 88a] | 0.1 | −0.3 | 0.1 | 1.5
Cn1cc2cc(Oc3ccc(C(F)(F)F)cc3)cc(C3C[C@H]3C(=O)N3C4COCC3CC(O)C4)c2n1 (single isomer, unassigned) [Example 116b] | 2.2 | 5.5 | 7.1 | 5.3
Cn1cc2cc(O[C@H]3CC[C@@H](C(F)(F)F)CC3)cc([C@@H]3C[C@H]3C(=O)N3CC(O)C3)c2n1 (single isomer, unassigned) [Example 87a] | 1.0 | 4.9 | 6.8 | 10.1
Cn1cc2cc(Oc3ccc(C(F)(F)F)cc3)cc([C@H]3C[C@@H]3C(=O)O)c2n1 (single isomer, unassigned) [Example 16b] | 15 | 12.1 | 12.5 | 14.9
Cn1cc2cc(Oc3ccc(C(F)(F)F)cc3)cc(C3C[C@H]3C(=O)N3CC(C(=O)O)C3)c2n1 (single isomer, unassigned) [Example 113] | 1.5 | 4.1 | 4.2 | 5.7
CNC(=O)[C@@H]1CC1c1cc(Oc2ccc(C(F)(F)F)cc2)cn2ccnc12 (mixture of isomers) [Example 84] | 1.2 | 1.0 | 3.1 | 6.5
O=C(O)[C@@H]1CC1c1cc(Oc2ccc(C(F)(F)F)cc2)cn2ccnc12 (mixture of isomers) [Example 83] | 1.4 | 2.7 | 3.6 | 8.0
CO[C@H]1CN(C(=O)[C@@H]2C[C@H]2c2cc(Oc3ccc(C(F)(F)F)cc3)cc3cn(C)nc23)C[C@@H]1O (single isomer, unassigned) [Example 112a] | 2.0 | 7.2 | 8.6 | 9.5
[2H]C([2H])([2H])n1cc2cc(Oc3ccc(C(F)(F)F)cc3)cc([C@@H]3C[C@H]3C(=O)NC)c2n1 (single isomer, unassigned) [Example 76a] | 0.6 | 5.4 | 4.7 | 10.3
Cn1cc2cc(Oc3ccc(C(F)(F)F)cc3)cc(C3C[C@H]3C(=O)N3CC4CC3[C@H](O)[C@H]4O)c2n1 (single isomer, unassigned) [Example 106] | 2.2 | 6.4 | 8.5 | 9.9
Cn1cc2cc(Oc3ccc(C(F)(F)F)cc3)cc([C@@H]3C[C@H]3C(=O)O)c2n1 (single isomer, unassigned) [Example 16a] | 2 | 11.3 | 11.4 | 13.7
Cn1cc2cc(Oc3ccc(C(F)(F)F)cc3)cc([C@@H]3C[C@H]3C(=O)N3CC4CC3CN4)c2n1 (single isomer, unassigned) [Example 122] | 1.8 | 5.9 | 4.9 | 6.5
Cn1cc2cc(O[C@H]3CC[C@@H](C(F)(F)F)CC3)cc([C@H]3C[C@@H]3C(=O)N3CC(O)C3)c2n1 (single isomer, unassigned) [Example 87b] | 0.0 | −0.4 | 0.3 | 2.6
Cn1cc2cc(Oc3ccc(F)c(F)c3)cc([C@@H]3C[C@H]3C(=O)N3CC(O)C3)c2n1 (single isomer, unassigned) [Example 90a] | 0.2 | −0.2 | 0.6 | 2.6
Cn1cc2cc(Oc3ccc(C(F)(F)F)cc3)cc(C3C[C@H]3C(=O)N3C4COCC3CC(O)C4)c2n1 (single isomer, unassigned) [Example 116a] | 1.8 | 4.6 | 6.1 | 6.1
